In ChEMBL document CHEMBL1201862, “PubChem BioAssay data set” (2004):
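In this assay, cells in 96-well plates receive the compound at five concentrations for 48 hours. Endpoints are linearly interpolated between the surrounding concentrations. The concentration for 50% growth inhibition is given as GI50.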 Calls of active or inactive are those of the source. No stated cut-off is given here; in the data, active = GI50 up to about 1.1 µM and inactive = higher.

Tests used:
Test in all cases: NCI-60 cell line screen, 48 h
[1] = tested on: LOX IMVI
[2] = tested on: UACC-257
[3] = tested on: NCI-H522
[4] = tested on: CAKI-1
[5] = tested on: SN12C
[6] = tested on: OVCAR-4
[7] = tested on: SK-OV-3
[8] = tested on: RPMI-8226
[9] = tested on: ACHN
[10] = tested on: HCT-15
[11] = tested on: HCC 2998
[12] = tested on: OVCAR-8
[13] = tested on: SK-MEL-2
[14] = tested on: HCT-116
[15] = tested on: SNB-19
[16] = tested on: NCI-H23
[17] = tested on: SR

Compound | GI50 [1] | GI50 [2] | GI50 [3] | GI50 [4] | GI50 [5] | GI50 [6] | GI50 [7] | GI50 [8] | GI50 [9] | GI50 [10] [µM] | GI50 [11] | GI50 [12] | GI50 [13] | GI50 [14] | GI50 [15] | GI50 [16] | GI50 [17]
O=C(CCc1cc(-c2ccccc2)nc(S)n1)N(Cc1ccccc1)Cc1ccccc1 | > 100 µM (inactive) | > 100 µM (inactive) | > 100 µM (inactive) | > 100 µM (inactive) | > 100 µM (inactive) | > 100 µM (inactive) | > 100 µM (inactive) | > 100 µM (inactive) | > 100 µM (inactive) | > 100 | > 100 µM (inactive) | > 100 µM (inactive) | > 100 µM (inactive) | > 100 µM (inactive) | > 100 µM (inactive) | > 100 µM (inactive) | 
CCOC(=O)CC1COc2ccc3c(c21)OCO3 (stereo not drawn) | > 100 µM (inactive) | > 100 µM (inactive) |  |  | > 100 µM (inactive) | > 100 µM (inactive) | > 100 µM (inactive) | > 100 µM (inactive) | > 100 µM (inactive) | > 100 | > 100 µM (inactive) | > 100 µM (inactive) | > 100 µM (inactive) | > 100 µM (inactive) | > 100 µM (inactive) | > 100 µM (inactive) | > 100 µM (inactive)
COC(=O)CSc1nnc(-c2ccccc2)[nH]1 |  | > 100 µM (inactive) | > 100 µM (inactive) | > 100 µM (inactive) | > 100 µM (inactive) | > 100 µM (inactive) | > 100 µM (inactive) | > 100 µM (inactive) | > 100 µM (inactive) | > 100 |  | > 100 µM (inactive) | > 100 µM (inactive) | > 100 µM (inactive) | > 100 µM (inactive) | > 100 µM (inactive) | 3.7 µM (inactive)
CCCCCCCCCCC(O)CCCCCCC(=O)O (stereo not drawn) | 15.8 µM (inactive) | 69.3 µM (inactive) | 24.5 µM (inactive) | 36.3 µM (inactive) | 21.1 µM (inactive) | 39.1 µM (inactive) | 78.3 µM (inactive) | 10.2 µM (inactive) | 22.5 µM (inactive) |  |  | 16.2 µM (inactive) | 47.9 µM (inactive) | 17.2 µM (inactive) | 48.8 µM (inactive) | 35 µM (inactive) | 15.1 µM (inactive)
O=C(OCc1ccccc1)N1N=NC2C3CC(OCc4ccccc4)(OCc4ccccc4)C(O3)C21 (stereo not drawn) | 15.1 µM (inactive) | 14 µM (inactive) |  | 25.7 µM (inactive) | 41.9 µM (inactive) | 22.2 µM (inactive) | 99.3 µM (inactive) | 7.24 µM (inactive) | 29.6 µM (inactive) | 34 | 27 µM (inactive) |  | 16.3 µM (inactive) |  |  | 12.8 µM (inactive) | 
Cc1cc(NS(=O)(=O)c2ccc(Nc3c4ccccc4nc4c(C(=O)N5CCN(CCOS(C)(=O)=O)CC5)cccc34)cc2)no1 |  | > 100 µM (inactive) |  | > 100 µM (inactive) | > 100 µM (inactive) | > 100 µM (inactive) | > 100 µM (inactive) | > 100 µM (inactive) | > 100 µM (inactive) | > 100 | > 100 µM (inactive) | > 100 µM (inactive) | > 100 µM (inactive) | > 100 µM (inactive) | > 100 µM (inactive) | > 100 µM (inactive) | 
O=C1C(=O)N(c2ccc(Cl)cc2)C(=O)/C(=N/c2cccc3c(=O)[nH][nH]c(=O)c23)C1c1nc2ccccc2o1 (stereo not drawn) | > 100 µM (inactive) | > 100 µM (inactive) |  | > 100 µM (inactive) | > 100 µM (inactive) | > 100 µM (inactive) | > 100 µM (inactive) | > 100 µM (inactive) | > 100 µM (inactive) | > 100 | > 100 µM (inactive) | > 100 µM (inactive) | > 100 µM (inactive) | > 100 µM (inactive) | 84.9 µM (inactive) | > 100 µM (inactive) | > 100 µM (inactive)
